Laboratory results as given in PubChem BioAssay (NCI).
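Values below derive from 48-hour exposures of cells grown in 96-well plates, with endpoints linearly interpolated between the two concentrations bracketing the appropriate inhibition level. GI50: concentration for 50% inhibition of growth. At the TGI there is no net growth.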

Key:
Test in all cases: NCI-60 cell line screen, 48 h
[1] = tested on: HOP-62 NSCLC
[2] = tested on: KM12 colon
[3] = tested on: M14 melanoma
[4] = tested on: SK-MEL-28 melanoma
[5] = tested on: SNB-19 CNS
[6] = tested on: OVCAR-8 ovarian
[7] = tested on: K-562 leukemia
[8] = tested on: HCT-15 colon
[9] = tested on: NCI-H226 lung
[10] = tested on: A498 renal

| SMILES | TGI [1] | TGI [2] | TGI [3] | TGI [4] | TGI [5] | TGI [6] | TGI [7] | TGI [8] | TGI [9] | GI50 [1] | GI50 [2] | GI50 [3] | GI50 [4] | GI50 [5] | GI50 [6] | GI50 [10] | TGI [10] | GI50 [8] | GI50 [9] | GI50 [7] |
| --- | --- | --- | --- | --- | --- | --- | --- | --- | --- | --- | --- | --- | --- | --- | --- | --- | --- | --- | --- | --- |
| C/C(=N\N=C(N)N)C(CN1CCOCC1)C(c1ccccc1)c1c(O)c2ccccc2oc1=O (stereo not given) | > 100 µM | > 100 µM | > 100 µM | > 100 µM | > 100 µM | > 100 µM | > 100 µM | > 100 µM | > 100 µM | – | – | – | – | – | – | – | – | – | – | – |
| C=CC1=C(C)C(/C=c2\[nH]/c(=C/c3[nH]c(CC4NC(=O)C(C)/C4=C\C)c(C)c3CCC(=O)O)c(CC(=O)O)c2C)=NC1=O (stereo not given) | > 100 µM | > 100 µM | > 100 µM | > 100 µM | > 100 µM | > 100 µM | > 100 µM | > 100 µM | > 100 µM | – | – | – | – | – | – | – | – | – | – | – |
| COC(=O)C1=C(C)NC(C)=C(C(=O)OC)C1c1cccc(/[N+]([O-])=C/c2ccccc2)c1 | > 100 µM | > 100 µM | 35 µM | 31.6 µM | > 100 µM | 32.7 µM | – | 44.9 µM | > 100 µM | – | – | – | – | – | – | – | – | – | – | – |
| CCC[CH2][Sn]1([CH2]CCC)[O]C(=O)c2cccc([N+](=O)[O-])c2C(=O)[O]1 | 3.36 µM | 3.16 µM | 2.07 µM | 1.43 µM | 2.51 µM | 2.24 µM | – | 1.31 µM | 1.34 µM | 1.92 µM | 1.6 µM | 0.682 µM | 0.465 µM | 1.2 µM | 1.04 µM | 0.191 µM | 0.547 µM | 0.3 µM | 0.331 µM | – |
| CCCCCCC(=O)NC1=C(N2CC2)C(=O)C(NC(=O)CCCCCC)=C(N2CC2)C1=O | > 100 µM | > 100 µM | > 100 µM | > 100 µM | > 100 µM | – | – | – | > 100 µM | 5.35 µM | 3.12 µM | 2.25 µM | > 100 µM | 12.9 µM | – | 2.62 µM | > 100 µM | – | > 100 µM | – |
| O=C1CCC2(O)c3ccccc3C2Cc2ccccc21 (stereo not given) | > 100 µM | > 100 µM | – | > 100 µM | > 100 µM | > 100 µM | > 100 µM | – | > 100 µM | – | – | – | – | – | – | – | – | – | – | – |
| CCN1CCN(c2ccc(NC(=O)Nc3nc4ccc(-c5ccccc5OC)cc4s3)cc2)CC1 | – | 3.33 µM | 3.03 µM | 3.26 µM | 3.65 µM | 3.66 µM | – | 2.47 µM | 4.52 µM | – | 1.75 µM | 1.62 µM | 1.76 µM | 2.03 µM | 1.99 µM | 1.8 µM | 3.61 µM | 1.2 µM | 2.09 µM | – |
| CCCCCCCCN(CCCCCCCC)CC(O)c1cc(-c2ccccc2)nc2ccc(OC)cc12 (stereo not given) | > 100 µM | > 100 µM | 68.5 µM | > 100 µM | > 100 µM | > 100 µM | – | > 100 µM | > 100 µM | 30.4 µM | 79.9 µM | 20.3 µM | 62.3 µM | 54.7 µM | 32.2 µM | > 100 µM | > 100 µM | 23.2 µM | > 100 µM | – |
| COc1ccc(C(C2=C(O)CC(C)OC2=O)C2=C(O)CC(C)OC2=O)cc1 (stereo not given) | > 100 µM | > 100 µM | > 100 µM | > 100 µM | > 100 µM | > 100 µM | > 100 µM | > 100 µM | > 100 µM | – | – | – | – | – | – | – | – | – | – | – |
| [N-]=[N+]=C(C(=O)CN1CCCC1=O)S(=O)(=O)c1ccccc1 | > 100 µM | > 100 µM | > 100 µM | > 100 µM | > 100 µM | > 100 µM | > 100 µM | > 100 µM | > 100 µM | – | – | – | – | – | – | – | – | – | – | – |
| CCCCCCCCCCCCCCNCC(OC)OC | 31.8 µM | 26.7 µM | 27.4 µM | 30.4 µM | 33.8 µM | 44.3 µM | – | 25.7 µM | 34.4 µM | – | – | – | – | – | – | – | 35 µM | – | – | – |
| COc1ccc(C(=O)/C=C/c2ccc(OCc3cccc(C(F)(F)F)c3)c(OC)c2)cc1OC | > 1000 µM | > 1000 µM | > 1000 µM | > 1000 µM | > 1000 µM | > 1000 µM | – | > 1000 µM | > 1000 µM | 51.5 µM | 55.3 µM | 70.9 µM | 262 µM | 78.9 µM | 48.8 µM | 207 µM | > 1000 µM | 42 µM | 83.1 µM | – |
| CN1C(=O)N(C)C2C1NC(=S)N2/N=C/C=C/c1ccccc1[N+](=O)[O-] (stereo not given) | > 100 µM | > 100 µM | > 100 µM | > 100 µM | > 100 µM | > 100 µM | – | > 100 µM | > 100 µM | 1.01 µM | 0.774 µM | 0.92 µM | 3.7 µM | 0.952 µM | 3.11 µM | 0.513 µM | 7.26 µM | 0.889 µM | 17.5 µM | – |
| NS(=O)(=O)c1ccc(-n2nc3c(c2-c2cccs2)Cc2ccccc2-3)cc1 | 32.2 µM | 32.2 µM | 34.1 µM | 58.4 µM | 44.8 µM | 41.6 µM | 3.55 µM | 27.8 µM | 26.2 µM | 16.5 µM | 13.5 µM | 17.3 µM | 25.8 µM | 18.1 µM | 20.5 µM | – | – | 12 µM | 4.9 µM | 0.858 µM |
